Several values for one entry are separate records, joined by “and”; a condition that tells them apart may be missing. Equal values may be shown once. Read-outs that look alike come from different tables or passages of the source.
Assays:
Assay type in all cases: cell-based
GPR139 [1] = target: T1, GPR139 (Homo sapiens, UniProt Q6DWJ6); assay: Ca2+ mobilization assay, antagonist mode (EC80 800 nM Lundbeck Cmp 1a after 20 min preincubation), GPR139-CHOk1; settings: individual replicates (Supplementary Figure 4)
T1 sequence (Q6DWJ6 1-353): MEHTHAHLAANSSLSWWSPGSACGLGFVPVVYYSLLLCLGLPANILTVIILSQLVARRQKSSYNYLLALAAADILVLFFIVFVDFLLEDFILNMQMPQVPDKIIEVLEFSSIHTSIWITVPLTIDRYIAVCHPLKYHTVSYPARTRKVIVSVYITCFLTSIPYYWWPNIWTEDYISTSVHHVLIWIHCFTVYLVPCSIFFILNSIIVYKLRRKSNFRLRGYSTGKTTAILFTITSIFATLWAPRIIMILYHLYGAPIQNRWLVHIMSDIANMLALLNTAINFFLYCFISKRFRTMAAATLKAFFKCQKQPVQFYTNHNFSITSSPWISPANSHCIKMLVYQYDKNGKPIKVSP
Method in brief: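 Antagonist mode: 800 nM (EC80) reference agonist Lundbeck Cmp 1a added following 20 min pre-incubation with 10 µM compound. GPR139-CHOk1 cells, Fluo-4 dye, probenecid-containing HEPES buffer pH 7.4; intracellular Ca2+ measured at 37 °C (ex 485, em 525 nm).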

GPR139 [2] = target: T1, GPR139; assay: Ca2+ mobilization assay, agonist mode, stable GPR139-CHOk1 cell line; settings: for Emax: normalized to Lundbeck Cmp 1a, read-out: Emax (%) Ca2+
Method in brief: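 Agonist activity of compounds is assessed in stably transfected CHO-K1 cells using the calcium dye Fluo-4 at 37 °C in HEPES-buffered HBSS (pH 7.4). Efficacy is expressed relative to the reference agonist Lundbeck Cmp 1a, set as 100%.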

[3] = target: T2, human muscarinic acetylcholine M1 receptor (M1R) (Homo sapiens, UniProt P11229); assay: Ca2+ mobilization counter-screen in M1R-CHOk1 cells; settings: individual replicates (Supplementary Figure 5);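 further: 10 µM test compound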
T2 sequence (P11229 1-460): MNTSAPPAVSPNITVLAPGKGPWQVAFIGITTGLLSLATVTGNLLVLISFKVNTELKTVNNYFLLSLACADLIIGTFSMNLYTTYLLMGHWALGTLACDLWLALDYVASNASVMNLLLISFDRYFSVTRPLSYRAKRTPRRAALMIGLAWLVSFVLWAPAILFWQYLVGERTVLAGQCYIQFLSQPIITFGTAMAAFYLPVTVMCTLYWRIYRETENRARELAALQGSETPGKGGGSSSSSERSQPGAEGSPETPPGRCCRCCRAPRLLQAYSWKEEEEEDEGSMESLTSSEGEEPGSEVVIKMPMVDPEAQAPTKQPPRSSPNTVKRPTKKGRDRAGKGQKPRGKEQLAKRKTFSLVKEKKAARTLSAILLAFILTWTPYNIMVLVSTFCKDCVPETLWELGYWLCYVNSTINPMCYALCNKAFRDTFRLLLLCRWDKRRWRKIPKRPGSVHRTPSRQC
Method in brief: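 Fluorescence (ex 485 nm, em 525 nm) recorded at 37 °C after automated compound addition to CHO-K1 cells stably expressing M1R. Cells were dye-loaded with 2 µM Fluo-4 AM for 1 h at 37 °C, with 2.5 mM probenecid present; final DMSO at most 0.3%.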

[4] = Agonist mode, individual replicates (Supplementary Figure 4)
[5] = GPR139-CHOk1, read-out: EC50, Ca2+ mobilization
[6] = Supplementary Table 2, mean ± SEM
[7] = log [Compound] M = -4.5, individual replicate columns
[8] = log [Compound] M = -5.0, individual replicate columns
[9] = log [Compound] M = -5.5, individual replicate columns
[10] = log [Compound] M = -6.0, individual replicate columns
[11] = log [Compound] M = -6.5, individual replicate columns
[12] = log [Compound] M = -7.0, individual replicate columns
[13] = log [Compound] M = -7.5, individual replicate columns
[14] = log [Compound] M = -8.0, individual replicate columns
[15] = log [Compound] M = -8.5, individual replicate columns
[16] = log [Compound] M = -9.0, individual replicate columns
[17] = Supplementary Table 2, mean ± SEM, read-out: pEC50 Ca2+ (converted)

SMILES	Ca2+ signal (% of Cmp 1a) (GPR139 [1])	Ca2+ signal (% of Cmp 1a) (GPR139 [2]; [4])	EC50 (GPR139 [2]; [5]) [nM]	Emax (GPR139 [2]; [6]) [%]	Ca2+ signal (% of Cmp 1a) (GPR139 [2]; [7])	Ca2+ signal (% of Cmp 1a) (GPR139 [2]; [8])	Ca2+ signal (% of Cmp 1a) (GPR139 [2]; [9])	Ca2+ signal (% of Cmp 1a) (GPR139 [2]; [10])	Ca2+ signal (% of Cmp 1a) (GPR139 [2]; [11])	Ca2+ signal (% of Cmp 1a) (GPR139 [2]; [12])	Ca2+ signal (% of Cmp 1a) (GPR139 [2]; [13])	Ca2+ signal (% of Cmp 1a) (GPR139 [2]; [14])	Ca2+ signal (% of Cmp 1a) (GPR139 [2]; [15])	Ca2+ signal (% of Cmp 1a) (GPR139 [2]; [16])	Ca2+ signal (% of Carbachol) [3]	EC50 (GPR139 [2]; [17]) [nM]
COc1ccc(-c2nc(CC(=O)NC(C)c3ccccc3)no2)cc1 (stereo not drawn) [Compound 1.18, COC1=CC=C(C2=NC(CC(NC(C3=CC=CC=C3)C)=O)=NO2)C=C1]	26 % of Cmp 1a and 19 % of Cmp 1a and 8 % of Cmp 1a	43 % of Cmp 1a and 66 % of Cmp 1a and 77 % of Cmp 1a	1000	72 ± 5	87 % of Cmp 1a and 72 % of Cmp 1a and 75 % of Cmp 1a	75 % of Cmp 1a and 67 % of Cmp 1a and 70 % of Cmp 1a	73 % of Cmp 1a and 53 % of Cmp 1a and 59 % of Cmp 1a	61 % of Cmp 1a and 23 % of Cmp 1a and 42 % of Cmp 1a	30 % of Cmp 1a and 3.38 % of Cmp 1a and 24 % of Cmp 1a	7 % of Cmp 1a and 9 % of Cmp 1a and 8 % of Cmp 1a	6 % of Cmp 1a and 11 % of Cmp 1a and 5.71 % of Cmp 1a	-0.63 % of Cmp 1a and 3 % of Cmp 1a and 8 % of Cmp 1a	3.39 % of Cmp 1a and 6.59 % of Cmp 1a and 3.49 % of Cmp 1a	0.103 % of Cmp 1a and 9 % of Cmp 1a and 2.64 % of Cmp 1a	2 % of Carbachol and 2.18 % of Carbachol and -0.905 % of Carbachol	
Cc1nc(-c2nc(CC(=O)NC(C)c3ccccc3)no2)co1 (stereo not drawn) [Compound 1.29, CC(C1=CC=CC=C1)NC(CC2=NOC(C3=COC(C)=N3)=N2)=O]	41 % of Cmp 1a and 13 % of Cmp 1a and 3 % of Cmp 1a	64 % of Cmp 1a and 49 % of Cmp 1a and 69 % of Cmp 1a		90 ± 8	126 % of Cmp 1a and 100 % of Cmp 1a and 74 % of Cmp 1a	67 % of Cmp 1a and 101 % of Cmp 1a and 61 % of Cmp 1a	46 % of Cmp 1a and 95 % of Cmp 1a and 41 % of Cmp 1a	17 % of Cmp 1a and 47 % of Cmp 1a and 13 % of Cmp 1a	0.562 % of Cmp 1a and 21 % of Cmp 1a and 3 % of Cmp 1a	-7 % of Cmp 1a and 12 % of Cmp 1a and 3 % of Cmp 1a	-2.32 % of Cmp 1a and 6.5 % of Cmp 1a and 3.51 % of Cmp 1a	0.891 % of Cmp 1a and 5.39 % of Cmp 1a and 3 % of Cmp 1a	-0.262 % of Cmp 1a and 8 % of Cmp 1a and -2.12 % of Cmp 1a	-0.615 % of Cmp 1a and 11 % of Cmp 1a and -1.07 % of Cmp 1a	-4.71 % of Carbachol and 3.73 % of Carbachol and 1.63 % of Carbachol	2510
Cc1ncc(-c2nc(CC(=O)NC(C)c3ccccc3)no2)o1 (stereo not drawn) [Compound 1.25, CC(C1=CC=CC=C1)NC(CC2=NOC(C3=CN=C(O3)C)=N2)=O]	3 % of Cmp 1a and 15 % of Cmp 1a and 5.33 % of Cmp 1a	86 % of Cmp 1a and 76 % of Cmp 1a and 90 % of Cmp 1a		97 ± 3	107 % of Cmp 1a and 102 % of Cmp 1a and 85 % of Cmp 1a and 96 % of Cmp 1a and 104 % of Cmp 1a	92 % of Cmp 1a (2×) and 95 % of Cmp 1a and 77 % of Cmp 1a and 93 % of Cmp 1a	62 % of Cmp 1a and 74 % of Cmp 1a and 52 % of Cmp 1a and 93 % of Cmp 1a and 64 % of Cmp 1a	43 % of Cmp 1a and 38 % of Cmp 1a and 31 % of Cmp 1a and 47 % of Cmp 1a and 36 % of Cmp 1a	17 % of Cmp 1a and 13 % of Cmp 1a and 4.22 % of Cmp 1a and 19 % of Cmp 1a and 9 % of Cmp 1a	7 % of Cmp 1a and 2.6 % of Cmp 1a and -3 % of Cmp 1a and 12 % of Cmp 1a and 3.24 % of Cmp 1a	10 % of Cmp 1a and 2.43 % of Cmp 1a and 2 % of Cmp 1a and 1.64 % of Cmp 1a and 4 % of Cmp 1a	3 % of Cmp 1a and 6 % of Cmp 1a (2×) and 5 % of Cmp 1a and 4.25 % of Cmp 1a	-0.76 % of Cmp 1a and -1.77 % of Cmp 1a and 0.877 % of Cmp 1a and 5.4 % of Cmp 1a and 0.153 % of Cmp 1a	0.813 % of Cmp 1a and 0.273 % of Cmp 1a and -1 % of Cmp 1a and 1 % of Cmp 1a and 2.54 % of Cmp 1a	5.35 % of Carbachol and 0.226 % of Carbachol and -1.63 % of Carbachol	2000
Cc1ccc(-c2nc(CC(=O)NC(C)c3ccccc3)no2)cc1 (stereo not drawn) [Compound 1.14, CC(C1=CC=CC=C1)NC(CC2=NOC(C3=CC=C(C)C=C3)=N2)=O]	7 % of Cmp 1a and -0.667 % of Cmp 1a and 13 % of Cmp 1a	71 % of Cmp 1a and 82 % of Cmp 1a and 46 % of Cmp 1a	400	89 ± 15	97 % of Cmp 1a and 92 % of Cmp 1a and 89 % of Cmp 1a and 44 % of Cmp 1a	79 % of Cmp 1a and 86 % of Cmp 1a and 77 % of Cmp 1a and 48 % of Cmp 1a	61 % of Cmp 1a and 79 % of Cmp 1a and 69 % of Cmp 1a and 48 % of Cmp 1a	61 % of Cmp 1a and 52 % of Cmp 1a and 58 % of Cmp 1a and 40 % of Cmp 1a	42 % of Cmp 1a and 32 % of Cmp 1a and 38 % of Cmp 1a and 28 % of Cmp 1a	17 % of Cmp 1a and 12 % of Cmp 1a and 27 % of Cmp 1a and 22 % of Cmp 1a	5.33 % of Cmp 1a and 7 % of Cmp 1a and 30 % of Cmp 1a and -6 % of Cmp 1a	12 % of Cmp 1a and 2.67 % of Cmp 1a (2×) and 0.667 % of Cmp 1a	-1.67 % of Cmp 1a and -4 % of Cmp 1a and 1.67 % of Cmp 1a	8 % of Cmp 1a and 10 % of Cmp 1a and -3.67 % of Cmp 1a and 1 % of Cmp 1a	-9 % of Carbachol and -1 % of Carbachol and 10 % of Carbachol	
Cc1ccc(-c2nc(CC(=O)NC(C)c3ccccc3)no2)s1 (stereo not drawn) [Compound 1.9, CC(C1=CC=CC=C1)NC(CC2=NOC(C3=CC=C(S3)C)=N2)=O]	1.67 % of Cmp 1a and 13 % of Cmp 1a	88 % of Cmp 1a and 93 % of Cmp 1a and 63 % of Cmp 1a		86 ± 8	76 % of Cmp 1a and 96 % of Cmp 1a and 87 % of Cmp 1a and 68 % of Cmp 1a	86 % of Cmp 1a and 100 % of Cmp 1a and 93 % of Cmp 1a and 70 % of Cmp 1a	70 % of Cmp 1a and 105 % of Cmp 1a and 84 % of Cmp 1a and 64 % of Cmp 1a	66 % of Cmp 1a and 73 % of Cmp 1a and 71 % of Cmp 1a and 65 % of Cmp 1a	37 % of Cmp 1a and 55 % of Cmp 1a and 47 % of Cmp 1a and 52 % of Cmp 1a	12 % of Cmp 1a and 23 % of Cmp 1a and 28 % of Cmp 1a and 35 % of Cmp 1a	2.33 % of Cmp 1a and 12 % of Cmp 1a and 15 % of Cmp 1a and 9 % of Cmp 1a	-1.67 % of Cmp 1a (2×) and -4 % of Cmp 1a and 0 % of Cmp 1a	-4.67 % of Cmp 1a and -2 % of Cmp 1a (2×) and 2 % of Cmp 1a	-5 % of Cmp 1a and 7 % of Cmp 1a and -15 % of Cmp 1a and -4.33 % of Cmp 1a	-5 % of Carbachol and 6 % of Carbachol	200
